{
  "source": "patent US5310752A",
  "about": "“Site specific alkylating agents” (priority 1986, dated 1994)",
  "key": {"[1]": {"test_system": "P388 leukemia cells", "test": "in vitro cytotoxicity, P388 leukemia cells, 48 hours treatment", "type": "cell-based, murine", "conditions": "for IC50: Mus musculus, read-out: ID50 P388", "protocol": "(§1) The in vitro antitumor activity was evaluated by cytotoxicity studies carried out on murine L1210 leukemia cells, L-PAM resistance leukemia cells and P388 leukemia cells, as well as on HeLa cells. Cells were derived from in vivo tumors and established in cell culture. Cells were used until the tenth passage. Cytotoxicity was determined by counting surviving cells after 4 hours treatment and 48 hours growth in drug-free medium. For HeLa cells the colony inhibition test according to Cancer Chemother. Pharmacol. 1:249-254, 1978, was used. The percentage of cell growth in the treated cultures was compared with that of controls. ID50 values (doses inhibiting 50% of the cellular growth in respect to controls) were calculated on dose-response curves.\n^2) Cytotoxicity evaluated after 48 hours treatment;"}, "[2]": {"test_system": "HeLa cells", "test": "colony inhibition test, HeLa cells, 24 hours treatment", "type": "cell-based", "conditions": "for IC50: Homo sapiens, read-out: ID50 HeLa", "protocol": "as §1\n^3) Colony inhibition test carried out after 24 hours treatment."}, "[3]": {"test_system": "L1210/LPAM", "test": "in vitro cytotoxicity, L-PAM resistance leukemia cells (L1210/LPAM), 4 hours treatment", "type": "cell-based, murine", "conditions": "for IC50: Mus musculus, L1210/LPAM, read-out: ID50 L1210/LPAM", "protocol": "as §1\n(§2) ^1) Cytotoxicity evaluated after 4 hours treatment;"}, "[4]": {"test_system": "L1210 leukemia cells", "test": "in vitro cytotoxicity, L1210 leukemia cells, 4 hours treatment", "type": "cell-based", "conditions": "murine L1210 leukemia cells, cytotoxicity evaluated after 4 hours treatment", "protocol": "as §1, §2"}, "[5]": {"test_system": "DNA-AT sequences", "conditions": "reported in literature; cited from earlier work"}, "[6]": {"conditions": "P388 leukemia cells, cytotoxicity evaluated after 48 hours treatment"}, "[7]": {"conditions": "HeLa cells, colony inhibition test carried out after 24 hours treatment"}, "[8]": {"conditions": "L-PAM resistance leukemia cells, cytotoxicity evaluated after 4 hours treatment"}},
  "note": "Where a name gives a salt, the structure may show the parent alone. Read-outs that look alike come from different tables or passages of the source.",
  "data": [
    {"smiles": "Cn1cc(NC(=O)c2cc(NC(=O)c3cc(NC(=O)c4ccc(N(CCCl)CCCl)cc4)cn3C)cn2C)cc1C(=O)NCCC(=N)N", "note": "[FCE 24517, β-[1-methyl-4-[1-methyl-4-[1-methyl-4-[4-N,N-bis(2-chloro-ethyl)aminobenzene-1-carboxamido]pyrrole-2-carboxamido]pyrrole-2-carboxamido]pyrrole-2-carboxamido]propionamidine hydrochloride]", "values": [
      {"measurement": "IC50", "setting": "[1]; P388, 48 h", "value": 0.21, "unit": "µg/mL"},
      {"measurement": "IC50", "setting": "[2]; HeLa, 24 h", "value": 0.014, "unit": "µg/mL"},
      {"measurement": "IC50", "setting": "[3]; 4 h", "value": 0.43, "unit": "µg/mL"}
    ]},
    {"smiles": "Cn1cc(NC(=O)c2cc(NC(=O)c3cc(NC(=O)c4cc(N(CCCl)CCCl)cs4)cn3C)cn2C)cc1C(=O)NCCC(=N)N", "note": "[FCE 24690, β-[1-methyl-4-[1-methyl-4-[1-methyl-4-[4-N,N-bis(2-chloro-ethyl)aminothiophen-2-carboxamido]pyrrole-2-carboxamido]pyrrole-2-carboxamido]pyrrole-2-carboxamido]propionamidine hydrochloride]", "values": [
      {"measurement": "ID50 P388", "setting": "[1]; [6]", "value": 0.22, "unit": "µg/mL"},
      {"measurement": "ID50 HeLa", "setting": "[2]; [7]", "value": 0.037, "unit": "µg/mL"},
      {"measurement": "ID50 L1210", "setting": "[4]", "value": 1.365, "unit": "µg/mL"},
      {"measurement": "ID50 L1210/LPAM", "setting": "[3]; [8]", "value": 0.985, "unit": "µg/mL"}
    ]},
    {"smiles": "Cn1cc(NC(=O)c2cc(NC(=O)c3cc(NC=O)cn3C)cn2C)cc1C(=O)NCCC(=N)N", "note": "[distamycin A, reference compound]", "values": [
      {"measurement": "IC50", "setting": "[1]; [6]", "value": 25, "unit": "µg/mL"},
      {"measurement": "IC50", "setting": "[2]; [7]", "value": 3.9, "unit": "µg/mL"},
      {"measurement": "IC50", "setting": "[4]; Mus musculus, read-out: ID50 L1210", "value": 198, "unit": "µg/mL"},
      {"measurement": "interaction with DNA-AT sequences", "setting": "[5]", "value": "interact reversibly and selectively with DNA-AT sequences interfering with both replication and trascription"},
      {"measurement": "IC50", "setting": "[3]; [8]", "value": 136, "unit": "µg/mL"}
    ]}
  ]
}
